Values after ≈ are worked out from the molar mass of the structure shown.
Tested on: Edwardsiella tarda
Experiment: MIC, microdilution in 96-well plates
Assay type: cell-based
Conditions: D: Edwardsiella tarda
How it was run: (§1)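 After 16-18 h shaking incubation at 37 °C, MIC was read visually as the lowest concentration without turbidity. Compounds were 2-fold serially diluted in LB medium seeded with a 1:10000 inoculum, following the CLSI microdilution protocol.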

Compound	MIC [µg/mL]
COc1cc(CN2CC[C@@H](NS(=O)(=O)c3cccc(OC(F)(F)F)c3)C2)ccc1OC(C)C [Compound 88]	> 8
N#Cc1cccc(S(=O)(=O)N[C@@H]2CCN(Cc3ccc(-c4ccncc4)cc3)C2)c1 [Compound 67]	> 8
O=S(=O)(N[C@@H]1CCN(Cc2ccn(-c3ccccc3)n2)C1)c1cccc(C(F)(F)F)c1 [Compound 125]	> 8
O=S(=O)(N[C@@H]1CCN(Cc2ccc(-c3nccs3)cc2)C1)c1cccc(C(F)(F)F)c1 [Compound 57]	> 8
N#Cc1cccc(S(=O)(=O)N[C@@H]2CCN(Cc3ccc(-c4nccs4)cc3)C2)c1 [Compound 12]	> 8

Tested on: E. coli BW25113
Experiment: MIC, microdilution in 96-well plates
Assay type: cell-based
Conditions: Escherichia coli, BW25113, B: E. coli BW25113; read-out: MIC
How it was run: as §1

Compound	MIC [µg/mL]
COc1cc(CN2CC[C@@H](NS(=O)(=O)c3cccc(OC(F)(F)F)c3)C2)ccc1OC(C)C [Compound 88]	> 8
N#Cc1cccc(S(=O)(=O)N[C@@H]2CCN(Cc3ccc(-c4ccncc4)cc3)C2)c1 [Compound 67]	> 8
O=S(=O)(N[C@@H]1CCN(Cc2ccn(-c3ccccc3)n2)C1)c1cccc(C(F)(F)F)c1 [Compound 125]	> 8
O=S(=O)(N[C@@H]1CCN(Cc2ccc(-c3nccs3)cc2)C1)c1cccc(C(F)(F)F)c1 [Compound 57]	> 8
N#Cc1cccc(S(=O)(=O)N[C@@H]2CCN(Cc3ccc(-c4nccs4)cc3)C2)c1 [Compound 12]	> 8

Tested on: Staphylococcus saprophyticus subsp. saprophyticus
Experiment: MIC, 20-strain panel
Assay type: cell-based
Conditions: not given
How it was run: as §1

Compound	MIC [µg/mL]
COc1cc(CN2CC[C@@H](NS(=O)(=O)c3cccc(OC(F)(F)F)c3)C2)ccc1OC(C)C [Compound 88]	> 8
N#Cc1cccc(S(=O)(=O)N[C@@H]2CCN(Cc3ccc(-c4ccncc4)cc3)C2)c1 [Compound 67]	> 8
O=S(=O)(N[C@@H]1CCN(Cc2ccn(-c3ccccc3)n2)C1)c1cccc(C(F)(F)F)c1 [Compound 125]	> 8
O=S(=O)(N[C@@H]1CCN(Cc2ccc(-c3nccs3)cc2)C1)c1cccc(C(F)(F)F)c1 [Compound 57]	> 8
N#Cc1cccc(S(=O)(=O)N[C@@H]2CCN(Cc3ccc(-c4nccs4)cc3)C2)c1 [Compound 12]	> 8

Tested on: Klebsiella pneumoniae subsp. pneumoniae
Experiment: MIC, 20-strain panel
Assay type: cell-based
Conditions: E: Klebsiella pneumoniae subsp. pneumoniae
How it was run: as §1

Compound	MIC [µg/mL]
COc1cc(CN2CC[C@@H](NS(=O)(=O)c3cccc(OC(F)(F)F)c3)C2)ccc1OC(C)C [Compound 88]	> 8
N#Cc1cccc(S(=O)(=O)N[C@@H]2CCN(Cc3ccc(-c4ccncc4)cc3)C2)c1 [Compound 67]	> 8
O=S(=O)(N[C@@H]1CCN(Cc2ccn(-c3ccccc3)n2)C1)c1cccc(C(F)(F)F)c1 [Compound 125]	> 8
O=S(=O)(N[C@@H]1CCN(Cc2ccc(-c3nccs3)cc2)C1)c1cccc(C(F)(F)F)c1 [Compound 57]	> 8
N#Cc1cccc(S(=O)(=O)N[C@@H]2CCN(Cc3ccc(-c4nccs4)cc3)C2)c1 [Compound 12]	> 8

Tested on: Shigella flexneri
Experiment: MIC, 20-strain panel
Assay type: cell-based
Conditions: G: Shigella flexneri
How it was run: as §1

Compound	MIC [µg/mL]
COc1cc(CN2CC[C@@H](NS(=O)(=O)c3cccc(OC(F)(F)F)c3)C2)ccc1OC(C)C [Compound 88]	> 8
N#Cc1cccc(S(=O)(=O)N[C@@H]2CCN(Cc3ccc(-c4ccncc4)cc3)C2)c1 [Compound 67]	> 8
O=S(=O)(N[C@@H]1CCN(Cc2ccn(-c3ccccc3)n2)C1)c1cccc(C(F)(F)F)c1 [Compound 125]	> 8
O=S(=O)(N[C@@H]1CCN(Cc2ccc(-c3nccs3)cc2)C1)c1cccc(C(F)(F)F)c1 [Compound 57]	> 8
N#Cc1cccc(S(=O)(=O)N[C@@H]2CCN(Cc3ccc(-c4nccs4)cc3)C2)c1 [Compound 12]	> 8

Tested on: Streptococcus agalactiae
Experiment: MIC, 20-strain panel
Assay type: cell-based
Conditions: not given
How it was run: as §1

Compound	MIC [µg/mL]
COc1cc(CN2CC[C@@H](NS(=O)(=O)c3cccc(OC(F)(F)F)c3)C2)ccc1OC(C)C [Compound 88]	> 8
N#Cc1cccc(S(=O)(=O)N[C@@H]2CCN(Cc3ccc(-c4ccncc4)cc3)C2)c1 [Compound 67]	> 8
O=S(=O)(N[C@@H]1CCN(Cc2ccn(-c3ccccc3)n2)C1)c1cccc(C(F)(F)F)c1 [Compound 125]	> 8
O=S(=O)(N[C@@H]1CCN(Cc2ccc(-c3nccs3)cc2)C1)c1cccc(C(F)(F)F)c1 [Compound 57]	> 8
N#Cc1cccc(S(=O)(=O)N[C@@H]2CCN(Cc3ccc(-c4nccs4)cc3)C2)c1 [Compound 12]	> 8

Tested on: E. coli MG1655
Experiment: MIC, 20-strain panel
Assay type: cell-based
Conditions: Escherichia coli, MG1655, A: E. coli MG1655; read-out: MIC
How it was run: as §1

Compound	MIC [µg/mL]
COc1cc(CN2CC[C@@H](NS(=O)(=O)c3cccc(OC(F)(F)F)c3)C2)ccc1OC(C)C [Compound 88]	> 8
N#Cc1cccc(S(=O)(=O)N[C@@H]2CCN(Cc3ccc(-c4ccncc4)cc3)C2)c1 [Compound 67]	> 8
O=S(=O)(N[C@@H]1CCN(Cc2ccn(-c3ccccc3)n2)C1)c1cccc(C(F)(F)F)c1 [Compound 125]	> 8
O=S(=O)(N[C@@H]1CCN(Cc2ccc(-c3nccs3)cc2)C1)c1cccc(C(F)(F)F)c1 [Compound 57]	> 8
N#Cc1cccc(S(=O)(=O)N[C@@H]2CCN(Cc3ccc(-c4nccs4)cc3)C2)c1 [Compound 12]	> 8

Tested on: Streptococcus pyogenes
Experiment: MIC, 20-strain panel
Assay type: cell-based
Conditions: not given
How it was run: as §1

Compound	MIC [µg/mL]
COc1cc(CN2CC[C@@H](NS(=O)(=O)c3cccc(OC(F)(F)F)c3)C2)ccc1OC(C)C [Compound 88]	> 8
N#Cc1cccc(S(=O)(=O)N[C@@H]2CCN(Cc3ccc(-c4ccncc4)cc3)C2)c1 [Compound 67]	> 8
O=S(=O)(N[C@@H]1CCN(Cc2ccn(-c3ccccc3)n2)C1)c1cccc(C(F)(F)F)c1 [Compound 125]	> 8
O=S(=O)(N[C@@H]1CCN(Cc2ccc(-c3nccs3)cc2)C1)c1cccc(C(F)(F)F)c1 [Compound 57]	> 8
N#Cc1cccc(S(=O)(=O)N[C@@H]2CCN(Cc3ccc(-c4nccs4)cc3)C2)c1 [Compound 12]	> 8

Tested on: Salmonella enterica subsp. enterica typhimurium
Experiment: MIC, 20-strain panel
Assay type: cell-based
Conditions: F: Salmonella enterica subsp. enterica Typhimurium
How it was run: as §1

Compound	MIC [µg/mL]
COc1cc(CN2CC[C@@H](NS(=O)(=O)c3cccc(OC(F)(F)F)c3)C2)ccc1OC(C)C [Compound 88]	> 8
N#Cc1cccc(S(=O)(=O)N[C@@H]2CCN(Cc3ccc(-c4ccncc4)cc3)C2)c1 [Compound 67]	> 8
O=S(=O)(N[C@@H]1CCN(Cc2ccn(-c3ccccc3)n2)C1)c1cccc(C(F)(F)F)c1 [Compound 125]	> 8
O=S(=O)(N[C@@H]1CCN(Cc2ccc(-c3nccs3)cc2)C1)c1cccc(C(F)(F)F)c1 [Compound 57]	> 8
N#Cc1cccc(S(=O)(=O)N[C@@H]2CCN(Cc3ccc(-c4nccs4)cc3)C2)c1 [Compound 12]	> 8

Tested on: E. coli JW5503 (deltolC)
Experiment: MIC, 20-strain panel
Assay type: cell-based
Conditions: Escherichia coli, C: E. coli JW5503 (deltolC)
How it was run: as §1

Compound	MIC [µg/mL]
COc1cc(CN2CC[C@@H](NS(=O)(=O)c3cccc(OC(F)(F)F)c3)C2)ccc1OC(C)C [Compound 88]	> 8
N#Cc1cccc(S(=O)(=O)N[C@@H]2CCN(Cc3ccc(-c4ccncc4)cc3)C2)c1 [Compound 67]	4 (≈ 9.56 µM)
O=S(=O)(N[C@@H]1CCN(Cc2ccn(-c3ccccc3)n2)C1)c1cccc(C(F)(F)F)c1 [Compound 125]	> 8
O=S(=O)(N[C@@H]1CCN(Cc2ccc(-c3nccs3)cc2)C1)c1cccc(C(F)(F)F)c1 [Compound 57]	8 (≈ 17.1 µM)
N#Cc1cccc(S(=O)(=O)N[C@@H]2CCN(Cc3ccc(-c4nccs4)cc3)C2)c1 [Compound 12]	2 (≈ 4.71 µM)

Tested on: Staphylococcus aureus subsp. aureus
Experiment: MIC, 20-strain panel
Assay type: cell-based
Conditions: H: Staphylococcus aureus subsp. aureus, read-out: MIC
How it was run: as §1

Compound	MIC [µg/mL]
COc1cc(CN2CC[C@@H](NS(=O)(=O)c3cccc(OC(F)(F)F)c3)C2)ccc1OC(C)C [Compound 88]	> 8
N#Cc1cccc(S(=O)(=O)N[C@@H]2CCN(Cc3ccc(-c4ccncc4)cc3)C2)c1 [Compound 67]	> 8
O=S(=O)(N[C@@H]1CCN(Cc2ccn(-c3ccccc3)n2)C1)c1cccc(C(F)(F)F)c1 [Compound 125]	> 8
O=S(=O)(N[C@@H]1CCN(Cc2ccc(-c3nccs3)cc2)C1)c1cccc(C(F)(F)F)c1 [Compound 57]	> 8
N#Cc1cccc(S(=O)(=O)N[C@@H]2CCN(Cc3ccc(-c4nccs4)cc3)C2)c1 [Compound 12]	> 8

Tested on: Staphylococcus epidermidis
Experiment: MIC, 20-strain panel
Assay type: cell-based
Conditions: not given
How it was run: as §1

Compound	MIC [µg/mL]
COc1cc(CN2CC[C@@H](NS(=O)(=O)c3cccc(OC(F)(F)F)c3)C2)ccc1OC(C)C [Compound 88]	> 8
N#Cc1cccc(S(=O)(=O)N[C@@H]2CCN(Cc3ccc(-c4ccncc4)cc3)C2)c1 [Compound 67]	> 8
O=S(=O)(N[C@@H]1CCN(Cc2ccn(-c3ccccc3)n2)C1)c1cccc(C(F)(F)F)c1 [Compound 125]	> 8
O=S(=O)(N[C@@H]1CCN(Cc2ccc(-c3nccs3)cc2)C1)c1cccc(C(F)(F)F)c1 [Compound 57]	> 8
N#Cc1cccc(S(=O)(=O)N[C@@H]2CCN(Cc3ccc(-c4nccs4)cc3)C2)c1 [Compound 12]	> 8

Source: patent US10253039B2, “Inhibitors of bacterial DNA gyrase with efficacy against gram-negative bacteria” (priority 2014, dated 2019)
